US20250263408A1 (Uniquest Pty Ltd, priority 2022, published 2025)

Assays:
Ba/F3-Syk cells = target: T1, Ba/F3-Syk cells (Homo sapiens, UniProt P43405); assay: Ba/F3 Proliferation Assay, Ba/F3-Syk cells (Resazurin); format: cell-based; conditions: 48-hour incubation
T1 construct: fused on or other part: Possible but unprinted fusion partner: TEL (ETV6), the usual partner for Ba/F3 lines transformed by Syk; Nothing on a partner is printed
Description: (§1) Ba/F3-Syk and Ba/F3-WT (wild type) cells were maintained at ≤1×10^6 cell/mL in RPMI (Life Technologies) with 10% FBS at 37° C. and 5% CO2 for a maximum of four weeks. Ba/F3-WT additionally contained 2 ng/mL mIL-3 (R&D Systems) to induce cellular growth. Cells were counted and dispensed at 5000 cells/well using a Multidrop Liquid Dispenser in a volume of 45 μL into black 384-well TC treated plates (Greiner) and incubated for four hours in complete media (+mIL-3 for Ba/F3-WT). Compounds were serially diluted in 100% DMSO, prior to an intermediate dilution in RPMI media. 5 μL of compound (0.4% final DMSO) was added to the cells, followed by a 48-hour incubation period. 5 μL of Resazurin (60 μM final) was then added and cells were incubated at 37° C. for three hours, before fluorescence (λex530/λem585) was measured using an Ensight Multimode Plate Reader (Perkin Elmer).

[1] = tested on: Ba/F3-WT (wild type) cells; assay: Ba/F3 Proliferation Assay, Ba/F3-WT (wild type) cells with mIL-3 (Resazurin); format: cell-based; conditions: Mus musculus, BaF3, 48 h, Ba/F3-WT cells +mIL-3, 48-hour incubation
Description: as §1

In the case of `Cn1cc(-c2cc3ncccc3c(OC[C@H]3CN[C@@H]4CCC[C@@H]4O3)n2)cn1` [Compound 2.72, 5-{[(2R,4aR,7aS)-octahydrocyclopenta[b][1,4]oxazin-2-yl]methoxy}-7-(1-methyl-1H-pyrazol-4-yl)-1,6-naphthyridine], the EC50 (Ba/F3-Syk cells) is reported as 0.266 µM and the EC50 [1] is reported as 1.9 µM.

`Cn1cc(-c2cc3ncccc3c(OC[C@@H]3CN[C@H]4CCC[C@H]4O3)n2)cn1` [Compound 2.73, 5-{[(2S,4aS,7aR)-octahydrocyclopenta[b][1,4]oxazin-2-yl]methoxy}-7-(1-methyl-1H-pyrazol-4-yl)-1,6-naphthyridine] showed an EC50 (Ba/F3-Syk cells) of 0.0322 µM and an EC50 [1] of 3.38 µM.

`C[C@H]1CNC[C@@H](COc2nc(-c3cnn(C)c3)cc3ncccc23)O1` [Compound 2.74, 7-(1-methyl-1H-pyrazol-4-yl)-5-{[(25,6S)-6-methylmorpholin-2-yl]methoxy}-1,6-naphthyridine] showed an EC50 (Ba/F3-Syk cells) of 0.109 µM and an EC50 [1] of 2.89 µM.

`C[C@H]1CNC[C@@H](COc2nc(-c3ccn(C)c3)cc3ncccc23)O1` [Compound 2.75, 7-(1-methyl-1H-pyrrol-3-yl)-5-{[(2,6S)-6-methylmorpholin-2-yl]methoxy}-1,6-naphthyridine] showed an EC50 (Ba/F3-Syk cells) of 0.0678 µM and an EC50 [1] of 3.92 µM.

`C[C@@H]1CNC[C@@H](COc2nc(-c3ccn(C)c3)cc3ncccc23)O1` [Compound 2.77, 7-(1-methyl-1H-pyrrol-3-yl)-5-{[(2S,6R)-6-methylmorpholin-2-yl]methoxy}-1,6-naphthyridine] showed an EC50 (Ba/F3-Syk cells) of 0.0427 µM and an EC50 [1] of 5.32 µM.

`O=C1CCn2cc(-c3cc4ncccc4c(OC[C@@H]4CNCCO4)n3)cc21` [Compound 2.78, 6-(5-{[(2S)-morpholin-2-yl]methoxy}-1,6-naphthyridin-7-yl)-2,3-dihydro-1H-pyrrolizin-1-one] was tested, and the EC50 (Ba/F3-Syk cells) was 0.147 µM and the EC50 [1] was 4.85 µM.

With `Cn1ccc(-c2cc3ncccc3c(OC[C@@H]3CNC(C)(C)CCO3)n2)c1` [Compound 2.79, 5-{[(2S)-5,5-dimethyl-1,4-oxazepan-2-yl]methoxy}-7-(1-methyl-1H-pyrrol-3-yl)-1,6-naphthyridine] the EC50 (Ba/F3-Syk cells) was 0.596 µM and the EC50 [1] was over 10 µM.

For `CC1(C)CNC[C@H](COc2nc(-c3cnn(C(C)(C)C)c3)cc3ncccc23)O1` [Compound 2.82, 7-(1-tert-butyl-1H-pyrazol-4-yl)-5-{[(2R)-6,6-dimethylmorpholin-2-yl]methoxy}-1,6-naphthyridine], the EC50 (Ba/F3-Syk cells) was 0.127 µM and the EC50 [1] was 2.27 µM.

`C[C@@H](Oc1nc(-c2cnn(C)c2)cc2ncccc12)[C@@H]1CNCC(C)(C)O1` [Compound 2.83, 5-[(1R)-1-[(2S)-6,6-dimethylmorpholin-2-yl]ethoxy]-7-(1-methyl-1H-pyrazol-4-yl)-1,6-naphthyridine] showed an EC50 (Ba/F3-Syk cells) of 0.0342 µM and an EC50 [1] of 1.65 µM.

`CC(C)n1cc(-c2cc3ncccc3c(O[C@H](C)[C@@H]3CNCC(C)(C)O3)n2)cn1` [Compound 2.84, 5-[(1R)-1-[(2S)-6,6-dimethylmorpholin-2-yl]ethoxy]-7-[1-(propan-2-yl)-1H-pyrazol-4-yl]-1,6-naphthyridine] gave an EC50 (Ba/F3-Syk cells) of 0.0223 µM and an EC50 [1] of 2.21 µM.

In the case of `CC(C)(C)n1cc(-c2cc3ncccc3c(OC[C@@H]3CNCC(F)(F)CO3)n2)cn1` [Compound 2.86, 7-(1-tert-butyl-1H-pyrazol-4-yl)-5-{[(2S)-6,6-difluoro-1,4-oxazepan-2-yl]methoxy}-1,6-naphthyridine], the EC50 (Ba/F3-Syk cells) is reported as 2.16 µM and the EC50 [1] is reported as over 10 µM.

`CC1(C)CNC[C@@H](COc2nc(-c3cnn(C4(C)CCC4)c3)cc3ncccc23)O1` [Compound 2.87, 5-{[(2S)-6,6-dimethylmorpholin-2-yl]methoxy}-7-[1-(1-methylcyclobutyl)-1H-pyrazol-4-yl]-1,6-naphthyridine] was tested, and the EC50 (Ba/F3-Syk cells) was 0.0112 µM and the EC50 [1] was 1.1 µM.

`CC1(C)CNC[C@@H](COc2nc(-c3cnn(C4(C)CC4)c3)cc3ncccc23)O1` [Compound 2.88, 5-{[(2S)-6,6-dimethylmorpholin-2-yl]methoxy}-7-[1-(1-methylcyclopropyl)-1H-pyrazol-4-yl]-1,6-naphthyridine] gave an EC50 (Ba/F3-Syk cells) of 0.0176 µM and an EC50 [1] of 1.56 µM.

In the case of `CC1(C)CNC[C@@H](COc2nc(-c3cnn(C4(C)CCOC4)c3)cc3ncccc23)O1` (stereo partly drawn) [Compound 2.89], the EC50 (Ba/F3-Syk cells) is reported as 0.0217 µM and the EC50 [1] is reported as 2.73 µM.

`CC[C@H]1CNC[C@@H](COc2nc(-c3cnn(C(C)(C)C)c3)cc3ncccc23)O1` [Compound 2.92, 7-(1-tert-butyl-1H-pyrazol-4-yl)-5-{[(2S,6S)-6-ethylmorpholin-2-yl]methoxy}-1,6-naphthyridine] gave an EC50 (Ba/F3-Syk cells) of 0.029 µM and an EC50 [1] of 0.599 µM.

`CC[C@@H]1CNC[C@@H](COc2nc(-c3cnn(C(C)(C)C)c3)cc3ncccc23)O1` [Compound 2.93, 7-(1-tert-butyl-1H-pyrazol-4-yl)-5-{[(2S,6R)-6-ethylmorpholin-2-yl]methoxy}-1,6-naphthyridine] showed an EC50 (Ba/F3-Syk cells) of 0.0277 µM and an EC50 [1] of 1.24 µM.

`CC(C)n1cc(-c2cc3ncccc3c(OC[C@H]3OCCN[C@H]3C)n2)cn1` [Compound 2.96, 5-{[(2S,3S)-3-methylmorpholin-2-yl]methoxy}-7-[1-(propan-2-yl)-1H-pyrazol-4-yl]-1,6-naphthyridine] gave an EC50 (Ba/F3-Syk cells) of 0.0201 µM and an EC50 [1] of 0.724 µM.

`O=C1CCn2cc(-c3cc(OC[C@@H]4CNCCO4)c4cccnc4c3)cc21` [Compound 3, 6-(5-{[(2S)-morpholin-2-yl]methoxy}quinolin-7-yl)-2,3-dihydro-1H-pyrrolizin-1-one] gave an EC50 (Ba/F3-Syk cells) of 0.162 µM and an EC50 [1] of 1.95 µM.

`c1cnc2cc(-c3cnn(C4CC4)c3)cc(OC[C@@H]3CNCCO3)c2c1` [Compound 3.3, 7-(1-cyclopropyl-1H-pyrazol-4-yl)-5-{[(2S)-morpholin-2-yl]methoxy} quinoline] was tested, and the EC50 (Ba/F3-Syk cells) was 0.179 µM and the EC50 [1] was 2.59 µM.

`c1cnc2cc(-c3cnn(C4CCC4)c3)cc(OC[C@@H]3CNCCO3)c2c1` [Compound 3.5, 7-(1-cyclobutyl-1H-pyrazol-4-yl)-5-{[(2S)-morpholin-2-yl]methoxy}quinoline] was tested, and the EC50 (Ba/F3-Syk cells) was 0.0618 µM and the EC50 [1] was 0.901 µM.

For `Cc1cc(-c2cc(OC[C@@H]3CNCCO3)c3cccnc3c2)cs1` [Compound 3.7, 7-(5-methylthiophen-3-yl)-5-{[(2S)-morpholin-2-yl]methoxy}quinoline], the EC50 (Ba/F3-Syk cells) was 0.134 µM and the EC50 [1] was 3.73 µM.

With `c1cnc2cc(-c3cc[nH]c3)cc(OC[C@@H]3CNCCO3)c2c1` [Compound 3.9, 5-{[(2S)-morpholin-2-yl]methoxy}-7-(1H-pyrrol-3-yl)quinoline] the EC50 (Ba/F3-Syk cells) was 0.167 µM and the EC50 [1] was over 10 µM.

Compound `CC1(C)CNC[C@@H](COc2cc(-c3cnn(C(F)F)c3)cc3ncccc23)O1` [Compound 3.11, 7-[1-(difluoromethyl)-1H-pyrazol-4-yl]-5-{[(2S)-6,6-dimethylmorpholin-2-yl]methoxy}quinoline] has an EC50 (Ba/F3-Syk cells) of 0.163 µM and an EC50 [1] of 2.14 µM.

Compound `CC1(C)CNC[C@@H](COc2cc(-c3cnn(CC(F)F)c3)cc3ncccc23)O1` [Compound 3.12, 7-[1-(2,2-difluoroethyl)-1H-pyrazol-4-yl]-5-{[(2S)-6,6-dimethylmorpholin-2-yl]methoxy}quinoline] has an EC50 (Ba/F3-Syk cells) of 0.087 µM and an EC50 [1] of 1.68 µM.

`CC1(C)CNC[C@@H](COc2cc(-c3cnn(C4CCC4)c3)cc3ncccc23)O1` [Compound 3.13, 7-(1-cyclobutyl-1H-pyrazol-4-yl)-5-{[(2S)-6,6-dimethylmorpholin-2-yl]methoxy}quinoline] was tested, and the EC50 (Ba/F3-Syk cells) was 0.0358 µM and the EC50 [1] was 0.814 µM.

For `CC1(C)CNC[C@@H](COc2cc(-c3ccn(C(C)(C)C)c3)cc3ncccc23)O1` [Compound 3.16, 7-(1-tert-butyl-1H-pyrrol-3-yl)-5-{[(28)-6,6-dimethylmorpholin-2-yl]methoxy}quinoline], the EC50 (Ba/F3-Syk cells) was 0.0119 µM and the EC50 [1] was 6.17 µM.

For `CC(C)(C)n1ccc(-c2cc(OC[C@@H]3CNCC4(CC4)O3)c3cccnc3c2)c1` [Compound 3.18, 7-(1-tert-butyl-1H-pyrrol-3-yl)-5-{[(5S)-4-oxa-7-azaspiro[2.5]octan-5-yl]methoxy}quinoline], the EC50 (Ba/F3-Syk cells) was 0.0231 µM and the EC50 [1] was 5.42 µM.

`CC(C)(C)n1cc(-c2cc(OC[C@@H]3CNCC4(CC4)O3)c3cccnc3c2)cn1` [Compound 3.20, 7-(1-tert-butyl-1H-pyrazol-4-yl)-5-{[(5S)-4-oxa-7-azaspiro[2.5]octan-5-yl]methoxy}quinoline] showed an EC50 (Ba/F3-Syk cells) of 0.0355 µM and an EC50 [1] of 1.96 µM.

`CC(C)n1cc(-c2cc(OC[C@@H]3CNCC4(CC4)O3)c3cccnc3c2)cn1` [Compound 3.21, 5-{[(SS)-4-oxa-7-azaspiro[2.5]octan-5-yl]methoxy}-7-[1-(propan-2-yl)-1H-pyrazol-4-yl]quinoline] gave an EC50 (Ba/F3-Syk cells) of 0.0131 µM and an EC50 [1] of 0.615 µM.

With `Cn1ccc(-c2cc(OC[C@@H]3CNCCCO3)c3cccnc3c2)c1` [Compound 3.22, 7-(1-methyl-1H-pyrrol-3-yl)-5-{[(2S)-1,4-oxazepan-2-yl]methoxy}quinoline] the EC50 (Ba/F3-Syk cells) was 0.099 µM and the EC50 [1] was 9.68 µM.

`c1cnc2cc(-c3cc4n(c3)CCC4)cc(OC[C@@H]3CNCCO3)c2c1` [Compound 4, 7-(2,3-dihydro-1H-pyrrolizin-6-yl)-5-{[(2S)-morpholin-2-yl]methoxy}quinoline] showed an EC50 (Ba/F3-Syk cells) of 0.0877 µM and an EC50 [1] of 7.21 µM.

`Cn1cc(-c2cc(OC[C@@H]3CNCCO3)c3cncnc3c2)cn1` [Compound 4.1, 7-(1-methyl-1H-pyrazol-4-yl)-5-{[(2S)-morpholin-2-yl]methoxy} quinazoline] gave an EC50 (Ba/F3-Syk cells) of 2.32 µM and an EC50 [1] of 7.43 µM.

For `CC1(C)CNC[C@@H](COc2cc(-c3cnn(C(C)(C)C)c3)cc3ncncc23)O1` [Compound 4.2, 7-(1-tert-butyl-1H-pyrazol-4-yl)-5-{[(2S)-6,6-dimethyl-morpholin-2-yl]methoxy} quinazoline], the EC50 (Ba/F3-Syk cells) was 0.171 µM and the EC50 [1] was over 10 µM.
